Assay results taken from patent US9062002B2, “Substituted pyridine derivatives as FabI inhibitors” (Aurigene Discovery Technologies Limited, priority 2011, dated 2015).
Converted amounts (≈) assume the structure as drawn. Read-outs that look alike come from different tables or passages of the source.

How the values were obtained:
MRSE = assay: MIC by broth microdilution method; format: cell-based; details: for MIC: Staphylococcus epidermidis, MRSA / MRSE, read-out: MIC Vs MRSA (μg/ml) MRSE
MSSA = assay: MIC by broth microdilution method; format: cell-based; details: for MIC: Staphylococcus aureus, MRSA / MSSA, read-out: MIC Vs MRSA (μg/ml) MSSA
Fab I = details: 1 μM compound
MRSA = assay: MIC by broth microdilution method; format: cell-based; details: for MIC: Staphylococcus aureus, read-out: MIC Vs MRSA (μg/ml) MRSA
[1] = Metabolic stability study in mouse liver microsomes; format: in vitro ADME; details: 1 μM, 37° C.
Method: The above selected compounds have protected mice from infection at ED50 doses. Metabolic Stability Study: In vitro metabolic stability of the compounds was done in mouse liver microsomes prepared in house as per standard protocol. Compounds were tested at 1 μM concentration. Compounds were incubated for 15 and 60 minutes at 37° C. with 100 rpm in shaker bath. After the incubation samples were analysed by LC/MS (API-4000). Respective control (Propranalol) was included in the study.

Row | Percentage of compound remained after 15 min [1] [%] | Percentage of compound remained after 60 min [1] [%] | SMILES | FAB-I inhibition %@1 μM (Fab I) [%] | MIC (MRSE; MRSE, broth microdilution) [µg/mL] | MIC (MSSA; MSSA, broth microdilution) [µg/mL] | MIC (MRSA; MRSA, broth microdilution) [µg/mL] | further results
1 |  |  | O=C1CCc2cc(/C=C/C(=O)N3CC=C(Cn4cccn4)CC3)cnc2N1 [Compound 100] | 77 |  |  |  | MIC Vs MRSA (μg/ml) MRSE (MRSE; MRSE, broth microdilution): 128 µg/mL (≈ 352 µM); MIC Vs MRSA (μg/ml) MSSA (MSSA; MSSA, broth microdilution): 128 µg/mL (≈ 352 µM); MIC Vs MRSA (μg/ml) MRSA (MRSA; MRSA, broth microdilution): 128 µg/mL (≈ 352 µM)
2 |  |  | O=C1CCc2cc(/C=C/C(=O)N3CC=C(Cc4cccc(Cl)c4)CC3)cnc2N1 [Compound 67] | 63 |  |  |  | MIC Vs MRSA (μg/ml) MRSE (MRSE; MRSE, broth microdilution): 2 µg/mL (≈ 4.9 µM); MIC Vs MRSA (μg/ml) MSSA (MSSA; MSSA, broth microdilution): 2 µg/mL (≈ 4.9 µM); MIC Vs MRSA (μg/ml) MRSA (MRSA; MRSA, broth microdilution): 1 µg/mL (≈ 2.45 µM)
3 | 83.3 | 60.2 | O=C1CCc2cc(/C=C/C(=O)N3CC=C(Cc4cncs4)CC3)cnc2N1 [Compound 145] |  |  |  |  | 
4 |  |  | O=C1CCc2cc(/C=C/C(=O)N3CC=C(COc4ccc(Cl)cc4)CC3)cnc2N1 [Compound 113] | 36 |  |  |  | MIC Vs MRSA (μg/ml) MRSE (MRSE; MRSE, broth microdilution): >128 µg/mL; MIC Vs MRSA (μg/ml) MSSA (MSSA; MSSA, broth microdilution): >128 µg/mL; MIC Vs MRSA (μg/ml) MRSA (MRSA; MRSA, broth microdilution): >128 µg/mL
5 | 21.6 | 7.3 | NC(=O)N1CCC2(CC1)Cc1cc(/C=C/C(=O)N3CC=C(Cc4cccs4)CC3)cnc1NC2=O [Compound 139, (E)-2-oxo-6-(3-oxo-3-(4-(thiophen-2-ylmethyl)-5,6-dihydropyridin-1(2H)-yl)prop-1-en-1-yl)-2,4-dihydro-1H-spiro[[1,8]naphthyridine-3,4′-piperidine]-1′-carboxamide] |  |  |  |  | 
6 |  |  | O=C1CCc2cc(/C=C/C(=O)N3CC=C(Cc4ccccc4F)CC3)cnc2N1 [Compound 66] | 84 |  |  |  | MIC Vs MRSA (μg/ml) MRSE (MRSE): 0.25 µg/mL (≈ 0.639 µM); MIC Vs MRSA (μg/ml) MSSA (MSSA): 0.25 µg/mL (≈ 0.639 µM); MIC Vs MRSA (μg/ml) MRSA (MRSA): 0.25 µg/mL (≈ 0.639 µM)
7 |  |  | O=C1CCc2cc(/C=C/C(=O)N3CC=C(Cc4sccc4Cl)CC3)cnc2N1 [Compound 87] | 69.05 |  |  |  | MIC Vs MRSA (μg/ml) MRSE (MRSE): 0.5 µg/mL (≈ 1.21 µM); MIC Vs MRSA (μg/ml) MSSA (MSSA): 0.5 µg/mL (≈ 1.21 µM); MIC Vs MRSA (μg/ml) MRSA (MRSA): 0.5 µg/mL (≈ 1.21 µM)
8 |  |  | Cc1ccc(CC2=CCN(C(=O)/C=C/c3cnc4c(c3)CCC(=O)N4)CC2)cc1 [Compound 70] | 63.47 |  |  |  | MIC Vs MRSA (μg/ml) MRSE (MRSE): 2 µg/mL (≈ 5.16 µM); MIC Vs MRSA (μg/ml) MSSA (MSSA): 1 µg/mL (≈ 2.58 µM); MIC Vs MRSA (μg/ml) MRSA (MRSA): 1 µg/mL (≈ 2.58 µM)
9 |  |  | O=C1CNCc2cc(/C=C/C(=O)N3CC=C(Cc4cccs4)CC3)cnc2N1 [Compound 92, (E)-7-(3-oxo-3-(4-(thiophen-2-ylmethyl)-5,6-dihydropyridin-1(2H)-yl)prop-1-en-1-yl)-4,5-dihydro-1H-pyrido[2,3-e][1,4]diazepin-2(3H)-one] |  | 0.25 (≈ 0.634 µM) | 0.12 (≈ 0.304 µM) | 0.25 (≈ 0.634 µM) | 
10 | 44.3 | 10.2 | O=C(/C=C/c1cnc2c(c1)CC1(CCN(C(=O)CO)CC1)C(=O)N2)N1CC=C(Cc2cccs2)CC1 [Compound 138, (E)-1′-(2-hydroxyacetyl)-6-(3-oxo-3-(4-(thiophen-2-ylmethyl)-5,6-dihydropyridin-1(2H)-yl)prop-1-en-1-yl)-1H-spiroa[[1,8]naphthyridine-3,4′-piperidin]-2(4H)-one] |  |  |  |  | 
11 | 57.9 | 15.8 | CN1CCC2(CC1)Cc1cc(/C=C/C(=O)N3CC=C(Cc4cccs4)CC3)cnc1NC2=O [Compound 146, (E)-1′-methyl-6-(3-oxo-3-(4-(thiophen-2-ylmethyl)-5,6-dihydropyridin-1(2H)-yl)prop-1-en-1-yl)-1H-spiro[[1,8]naphthyridine-3,4′-piperidin]-2(4H)-one] |  |  |  |  | 
12 |  |  | O=C1CCc2cc(/C=C/C(=O)N3CC=C(Cc4cccs4)CC3)cnc2N1 [Compound 84] | 100 |  |  |  | MIC Vs MRSA (μg/ml) MRSE (MRSE): 0.25 µg/mL (≈ 0.659 µM); MIC Vs MRSA (μg/ml) MSSA (MSSA): 0.125 µg/mL (≈ 0.329 µM); MIC Vs MRSA (μg/ml) MRSA (MRSA): 0.25 µg/mL (≈ 0.659 µM)
13 | 4.0 | 2.2 | O=C(/C=C/c1cnc2c(c1)CN(CCN1CCC3(CC1)COC3)C(=O)N2)N1CC=C(Cc2cccs2)CC1 [Compound 147, (E)-3-(2-(2-oxa-7-azaspiro[3.5]nonan-7-yl)ethyl)-6-(3-oxo-3-(4-(thiophen-2-ylmethyl)-5,6-dihydropyridin-1(2H)-yl)prop-1-en-1-yl)-3,4-dihydropyrido[2,3-d]pyrimidin-2(1H)-one] |  |  |  |  | 
14 |  |  | O=C1CCc2cc(/C=C/C(=O)N3CC=C(c4ccc(F)cc4)CC3)cnc2N1 [Compound 8] | 108 |  |  |  | MIC Vs MRSA (μg/ml) MRSE (MRSE; MRSE, broth microdilution): 8 µg/mL (≈ 21.2 µM); MIC Vs MRSA (μg/ml) MSSA (MSSA; MSSA, broth microdilution): 2 µg/mL (≈ 5.3 µM); MIC Vs MRSA (μg/ml) MRSA (MRSA; MRSA, broth microdilution): 2 µg/mL (≈ 5.3 µM)
15 | 86.8 | 57.1 | Cc1cnc(CC2=CCN(C(=O)/C=C/c3cnc4c(c3)CCC(=O)N4)CC2)s1 [Compound 57] |  |  |  |  | 
16 |  |  | CC(=O)N1CCC2(CC1)Cc1cc(/C=C/C(=O)N3CC=C(Cc4cccs4)CC3)cnc1NC2=O [Compound 96, (E)-1′-acetyl-6-(3-oxo-3-(4-(thiophen-2-ylmethyl)-5,6-dihydropyridin-1(2H)-yl)prop-1-en-1-yl)-1H-spiro[[1,8]naphthyridine-3,4′-piperidin]-2(4H)-one] |  | 16 (≈ 32.6 µM) | 8 (≈ 16.3 µM) | 8 (≈ 16.3 µM) | 
17 | 55.7 | 37.6 | CC(C)(C)OC(=O)N1CCC2(CC1)Cc1cc(/C=C/C(=O)N3CC=C(Cc4cccs4)CC3)cnc1NC2=O [Compound 94, (E)-tert-butyl 2-oxo-6-(3-oxo-3-(4-(thiophen-2-ylmethyl)-5,6-dihydropyridin-1(2H)-yl)prop-1-en-1-yl)-2,4-dihydro-1H-spiro[[1,8]naphthyridine-3,4′-piperidine]-1′-carboxylate] |  | 1 (≈ 1.82 µM) | 0.5 (≈ 0.911 µM) | 0.5 (≈ 0.911 µM) | 
18 |  |  | O=C1CCc2cc(/C=C/C(=O)N3CC=C(Cc4nccs4)CC3)cnc2N1 [Compound 97] | 66.85 |  |  |  | MIC Vs MRSA (μg/ml) MRSE (MRSE): 1 µg/mL (≈ 2.63 µM); MIC Vs MRSA (μg/ml) MSSA (MSSA): 0.5 µg/mL (≈ 1.31 µM); MIC Vs MRSA (μg/ml) MRSA (MRSA): 0.5 µg/mL (≈ 1.31 µM)
19 | 1.9 | 1.7 | CC(C)CC(=O)N1CCC2(CC1)Cc1cc(/C=C/C(=O)N3CC=C(Cc4cccs4)CC3)cnc1NC2=O [Compound 140, (E)-1′-(3-methylbutanoyl)-6-(3-oxo-3-(4-(thiophen-2-ylmethyl)-5,6-dihydropyridin-1(2H)-yl)prop-1-en-1-yl)-1H-spiro[[1,8]naphthyridine-3,4′-piperidin]-2(4H)-one] |  |  |  |  | 
20 | 27.5 | 15.8 | O=C1CCNc2cc(/C=C/C(=O)N3CC=C(Cc4nccs4)CC3)cnc2N1 [Compound 143, (E)-8-(3-oxo-3-(4-(thiazol-2-ylmethyl)-5,6-dihydropyridin-1(2H)-yl)prop-1-en-1-yl)-2,3-dihydro-1H-pyrido[2,3-b][1,4]diazepin-4(5H)-one] |  |  |  |  | 
21 |  |  | O=C1CCc2cc(/C=C/C(=O)N3CC=C(COc4ccccc4)CC3)cnc2N1 [Compound 107, (E)-6-(3-oxo-3-(4-(phenoxymethyl)-5,6-dihydropyridin-1(2H)-yl)prop-1-en-1-yl)-3,4-dihydro-1,8-naphthyridin-2(1H)-one] | 95 | 4 (≈ 10.3 µM) | 4 (≈ 10.3 µM) | 4 (≈ 10.3 µM) | 

Row | SMILES | Percentage of compound remained after 15 min [1] [%] | Percentage of compound remained after 60 min [1] [%] | FAB-I inhibition %@1 μM (Fab I) [%] | MIC (MRSE; MRSE, broth microdilution) [µg/mL] | MIC (MSSA; MSSA, broth microdilution) [µg/mL] | MIC (MRSA; MRSA, broth microdilution) [µg/mL] | further results
22 | O=C(/C=C/c1cnc2c(c1)CN(CCN1CCOCC1)C(=O)N2)N1CC=C(Cc2cccs2)CC1 [Compound 90, (E)-3-(2-morpholinoethyl)-6-(3-oxo-3-(4-(thiophen-2-ylmethyl)-5,6-dihydropyridin-1(2H)-yl)prop-1-en-1-yl)-3,4-dihydro pyrido[2,3-d]pyrimidin-2(1H)-one] | 32.4 | 22.9 | 89 | > 128 | > 128 | > 128 | 
23 | O=C1CCc2cc(/C=C/C(=O)N3CC=C(c4ccccc4)CC3)cnc2N1 [Compound 2, (E)-6-(3-oxo-3-(4-phenyl-5,6-dihydropyridin-1(2H)-yl)prop-1-en-1-yl)-3,4-dihydro-1,8-naphthyridin-2(1H)-one] | 99.7 | 97.9 | 86 | 4 (≈ 11.1 µM) | 0.5 (≈ 1.39 µM) | 0.5 (≈ 1.39 µM) | 
24 | O=C1CCc2cc(/C=C/C(=O)N3CC=C(Cc4ccccc4)CC3)cnc2N1 [Compound 62] | 78.5 | 54.2 | 76 |  |  |  | MIC Vs MRSA (μg/ml) MRSE (MRSE): 0.5 µg/mL (≈ 1.34 µM); MIC Vs MRSA (μg/ml) MSSA (MSSA): 0.25 µg/mL (≈ 0.669 µM); MIC Vs MRSA (μg/ml) MRSA (MRSA): 0.5 µg/mL (≈ 1.34 µM)
25 | CC(=O)Nc1ccc(/C=C/C(=O)N2CC=C(Cc3cccs3)CC2)cn1 [Compound 88, (E)-N-(5-(3-oxo-3-(4-(thiophen-2-ylmethyl)-5,6-dihydropyridin-1(2H)-yl)prop-1-en-1-yl)pyridin-2-yl)acetamide] | 11.1 | 5.5 | 87 | > 128 | > 128 | > 128 | 
26 | CN1CC(=O)Nc2ncc(/C=C/C(=O)N3CC=C(Cc4cccs4)CC3)cc2C1 [Compound 93, (E)-4-methyl-7-(3-oxo-3-(4-(thiophen-2-ylmethyl)-5,6-dihydropyridin-1(2H)-yl)prop-1-en-1-yl)-4,5-dihydro-1H-pyrido[2,3-e][1,4]diazepin-2(3H)-one] | 16.1 | 1.1 | 93 | 1 (≈ 2.45 µM) | 0.5 (≈ 1.22 µM) | 0.5 (≈ 1.22 µM) | 
